In series [1] the target is T1, IDO1 enzyme in Hela cells (Homo sapiens, UniProt P14902).
T1 construct: endogenous in cells; host or cells: HeLa cells stimulated with human recombinant IFN-γ
The series is described as follows: Inhibition of IDO1 enzyme in IFN-γ stimulated Hela cells (kynurenine read at 480 nm). The series is classed as cell-based. As to conditions: for inhibition at 0.1 µM: read-out: Inhibition rate (%) 100 nmol; for inhibition at 10 µM: read-out: Inhibition rate (%) 10 μmol; for activity compared with positive control drugs INCB024360 and IN-4 / IC50: Hela cells; for activity compared with positive control drugs INCB024360 and IN-4: IC50 comparison; for IC50: read-out: Inhibition rate IC50 (nmol/L) on IDO1 enzyme activity in Hela cells.

The conditions of series [2]: literature value, species not stated; cited from earlier work.
The test system of series [3] is colon cancer CT26. The series is described as follows: In vivo pharmacodynamics, anti-colon cancer CT26 activity (oral administration, twice a day). Also noted: species or system BALB/c mice. The settings on record: two weeks. The method, then: Pharmacodynamic of Some Compounds In Vivo (Oral Administration):
The anti-colon cancer CT26 activity of these compounds was tested in vivo. 1×10^6 CT26 cells were inoculated subcutaneously in the right axillary of BALB/c mice by cell suspension inoculation. When the growth of tumors were clearly observed, 56 moderately tumor size animals were selected and randomly divided into test group, solvent control group and positive drug group, with 8 animals in each group. […] The solvent control group was given the same volume of mixed solvents by oral. The above groups were administered twice a day. The weight of the mice and the length and short diameter of the transplanted tumors were measured three times a week during the administration. The tumor volume (VT), relative volume (RVT) and tumor proliferation rate (T/C %) were calculated. After two weeks of administration, nude mice bearing tumors in each experimental group were executed by neck-lifting method. Solid tumour tissues were completely dissected. The weight of tumors in each experimental group was measured and the growth inhibition rate (%) was calculated.

The test system of series [4] is colon cancer CT26. The series is described as follows: In vivo pharmacodynamics, anti-colon cancer CT26 activity (intraperitoneal injection, once daily). As to conditions: CT26 in BALB/c mice; for Inhibition rate (%) of tumor weight / Tumor weight: 50 mg/kg daily intraperitoneal injection, two weeks; for activity at the end of the experiment compared with other groups: once daily dosing. The method, then:
Pharmacodynamics of Some Compounds In Vivo (Intraperitoneal Injection):
The anti-colon cancer CT26 activity of these compounds was tested in vivo. 1×10^6 CT26 cells were inoculated subcutaneously in the right axillary of BALB/c mice by cell suspension inoculation. When the growth of tumors were clearly observed, 42 moderately tumor size animals were selected and randomly divided into test group, solvent control group and positive drug group, with 6 animals in each group. […] The compound groups were intraperitoneally injected with 50 mg/kg of the compound every day, while the solvent control group was given the same dosage with the same volume of mixed solvent. The weight of the mice and the length and short diameter of the transplanted tumors were measured three times a week during the administration. The tumor volume (VT), relative volume (RVT) and tumor proliferation rate (T/C %) were calculated. After two weeks of administration, nude mice bearing tumors in each experimental group were executed by neck-lifting method. Solid tumour tissues were completely dissected. The weight of tumors in each experimental group was measured and the growth inhibition rate (%) was calculated.

Series [5] in a line: Oral pharmacokinetic test of compound 55 in rats. As to conditions: male, Sprague-Dawley, plasma, rat, 30 mg/kg. In kind it is in vivo. On the procedure: Pharmacokinetic Test and Results of Compound 55:
12 Male Sprague-Dawley rats were grouped random. The final concentration of compound 55 was 1.5 mg/ml. The drug was dissolved in a solvent system of 10% DMSO, 10% hydrogenated castor oil and […] (compounds were dissolved by DMSO, hydrogenated castor oil and saline in turn by vortex or ultrasound), and the drug solution was given orally (30 mg/kg). The rats were fasted overnight but had free access to water, feeding resumed 4 hours after administration. Blood samples (0.3-0.4 mL) were collected into heparinized tubes by Retinal vein plexus at 0, 0.17, 0.33, 0.67, 1, 2, 4, 7, 10 and 24 hours after administration orally. Tubes were anticoagulated with heparin sodium (5% heparin sodium solution filled EP tube, poured out, dried). 100 uL plasma was obtained by centrifugation (10000 rpm, 3 min) and stored at −20° C. before analysis.

Series [6] concerns colon cancer CT26. The series is described as follows: In vivo pharmacodynamics, anti-colon cancer CT26 activity (oral administration, twice a day). As to conditions: 50 mg/kg intraperitoneal injection (IP), two weeks. Also noted: species or system BALB/c mice.
Series [7] relates to colon cancer CT26. The series is described as follows: In vivo pharmacodynamics, anti-colon cancer CT26 activity (intraperitoneal injection, once daily). As to conditions: 300 mg/kg daily by oral, two weeks, CT26 in BALB/c mice.
[8] abbreviates: 100 nmol compound, IFN-γ stimulated Hela cells, 48 hours.
Setting [9] is: 10 μmol compound, IFN-γ stimulated Hela cells, 48 hours.

Like-named read-outs stand apart in the source and are kept apart here.

T1 sequence (P14902 whole entry): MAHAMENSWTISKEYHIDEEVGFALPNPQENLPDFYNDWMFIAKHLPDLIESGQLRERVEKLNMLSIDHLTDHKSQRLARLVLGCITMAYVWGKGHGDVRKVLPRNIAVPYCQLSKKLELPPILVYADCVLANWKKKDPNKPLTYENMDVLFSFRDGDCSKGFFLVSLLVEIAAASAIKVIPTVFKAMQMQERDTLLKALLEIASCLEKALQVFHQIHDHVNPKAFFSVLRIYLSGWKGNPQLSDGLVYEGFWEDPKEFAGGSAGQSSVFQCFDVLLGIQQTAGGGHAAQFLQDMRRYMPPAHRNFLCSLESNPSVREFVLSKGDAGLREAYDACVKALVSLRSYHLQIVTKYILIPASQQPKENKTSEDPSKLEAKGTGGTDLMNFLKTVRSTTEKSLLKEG

As to `CCCCN(CCCC)c1ccc(/C(C)=C/C(=O)OCC)cc1NC(=O)Nc1ccccc1Cl` [Compound 1021], the inhibition at 0.1 µM in series [1] (setting [8]) came to 42.1%. The inhibition at 10 µM in series [1] (setting [9]) stood at 100%.
For `NS(=O)(=O)NCCNc1nonc1C(=NO)Nc1ccc(F)c(Br)c1` [INCB024360, reference compound], the “T1/2 reported in the literature” value in series [2] is 2.3 h. In the series on colon cancer CT26 [3] (50 mg/kg oral), the “Inhibition rate (%) of tumor weight” value was determined as 33.66% and the “Tumor weight” value amounted to 840.63 ± 144.34 mg. Moreover, in the series on colon cancer CT26 [4], the “Inhibition rate (%) of tumor weight” value is listed as 10.23% and the “Tumor weight” value is reported as 3026.17 ± 409.75 mg.
In the case of `CCCCN(CCCC)c1ccc(/C(C)=C\C(=O)O)cc1NC(=O)Nc1ccc(C)cc1F` [Compound 14], in the series with colon cancer CT26 [3] (50 mg/kg oral), the “Inhibition rate (%) of tumor weight” value was determined as 37.39% and the “Tumor weight” value was 793.38 ± 246.34 mg. Also, in the series on colon cancer CT26 [4], the “Inhibition rate (%) of tumor weight” value was 19.02% and the “Tumor weight” value amounted to 2727.33 ± 404.42 mg. The inhibition at 0.1 µM in series [1] (setting [8]) was 100%. In series [1] (setting [9]), the inhibition at 10 µM was found to be 100%. In series [1], the “activity compared with positive control drugs INCB024360 and IN-4” value is “can reach or exceed those of the positive control drugs INCB024360 and IN-4”; the IC50 amounted to 0.18 nmol/L.
Consider `CCCCN(CCCC)c1ccc(/C(C)=C\C(=O)O)cc1NC(=O)Nc1ccc(F)cc1F` [Compound 13], for which, in series [1] (setting [8]), the inhibition at 0.1 µM turned out to be 100%. Also, the inhibition at 10 µM in series [1] (setting [9]) was 100%. In series [1], the “activity compared with positive control drugs INCB024360 and IN-4” value was “can reach or exceed those of the positive control drugs INCB024360 and IN-4”; the IC50 is 3.69 nmol/L.
For `CCCCN(CCCC)c1ccc(/C(C)=C/C(=O)OCC)cc1NC(=O)Nc1cccc(Cl)c1` [Compound 1022], the inhibition at 0.1 µM in series [1] (setting [8]) stood at 21.2%. In series [1] (setting [9]), the inhibition at 10 µM worked out at 53.7%.
As to `CCCCN(CCCC)c1ccc(/C(C)=C/C(=O)O)cc1NC(=O)Cc1ccccc1F` [Compound 779], the inhibition at 0.1 µM in series [1] (setting [8]) came out at 77.1%. Further, in series [1] (setting [9]), the inhibition at 10 µM was 100%.
Take `CCOC(=O)/C=C(\C)c1ccc(N(CC(C)C)CC(C)C)c(NC(=O)Nc2ccc(F)cc2F)c1` [Compound 564, ethyl (E)-3-(3-(3-(2,4-difluorophenyl)ureido)-4-(diisobutylamino)phenyl) but-2-enoate]: the inhibition at 0.1 µM in series [1] (setting [8]) came out at 72.2%. Moreover, in series [1] (setting [9]), the inhibition at 10 µM is 100%.
Consider `C/C(=C/C(=O)O)c1ccc(N(CC(C)C)CC(C)C)c(NC(=O)Nc2ccc(C)cc2)c1` [Compound 51], for which, in series [1], the “activity compared with positive control drugs INCB024360 and IN-4” value is “can reach or exceed those of the positive control drugs INCB024360 and IN-4”; the IC50 stood at 3.69 nmol/L.
`CCCCN(CCCC)c1ccc(/C(C)=C/C(=O)OCC)cc1NC(=O)Cc1ccccc1F` [Compound 772]: the inhibition at 0.1 µM in series [1] (setting [8]) came out at 74.2%. The inhibition at 10 µM in series [1] (setting [9]) turned out to be 100%.
On to `C/C(=C/C(=O)O)c1ccc(N(CC(C)C)CC(C)C)c(NC(=O)Nc2ccc(F)cc2F)c1` [Compound 55, (Z)-3-(3-(3-(2,4-difluorophenyl)ureido)-4-(diisobutylamino)phenyl)but-2-enoic acid], for which, in series [5], the AUC stood at 43700 ng·h/mL, the concentration peaked (Cmax) at 16800 ng/mL and the half-life was 5 h. In the series with colon cancer CT26 [3] (20 mg/kg oral (low dose)), the “Inhibition rate (%) of tumor weight” value is given as 12.42% and the “Tumor weight” value is recorded as 1109.75 ± 191.47 mg. In addition, in the series on colon cancer CT26 [3] (50 mg/kg oral), the “Inhibition rate (%) of tumor weight” value was determined as 27.06% and the “Tumor weight” value is recorded as 924.25 ± 150.35 mg. For the same molecule, in the series on colon cancer CT26 [3] (100 mg/kg oral (high dose)), the “Inhibition rate (%) of tumor weight” value is reported as 33.16% and the “Tumor weight” value was determined as 847.00 ± 305.01 mg. In the series on colon cancer CT26 [6], the “Inhibition rate (%) of tumor weight” value was 34.97% and the “Tumor weight” value worked out at 824.00 ± 161.64 mg. In the series on colon cancer CT26 [4], the “Inhibition rate (%) of tumor weight” value was 37.02%, the “Tumor weight” value is reported as 2121.17 ± 343.15 mg and the “activity at the end of the experiment compared with other groups” value was “equivalent to that of 1-MT”. Besides, in series [1], the “activity compared with positive control drugs INCB024360 and IN-4” value was “can reach or exceed those of the positive control drugs INCB024360 and IN-4”; the IC50 was 0.09 nmol/L.
Take `CCCCN(CCCC)c1ccc(/C(C)=C/C(=O)OCC)cc1NC(=O)Nc1cccc(C)c1` [Compound 1026]: the inhibition at 0.1 µM in series [1] (setting [8]) is 21%. In addition, the inhibition at 10 µM in series [1] (setting [9]) came out at 54.3%.
In the case of `Cn1cc(C[C@@H](N)C(=O)O)c2ccccc21` [Compound 1-MT, 1-methyl-D-tryptophan], in the series on colon cancer CT26 [4], the “activity at the end of the experiment compared with other groups” value is recorded as “better than that of INCB024360”. In the series with colon cancer CT26 [7], the “Inhibition rate (%) of tumor weight” value came to 25.5% and the “Tumor weight” value came out at 2509.17 ± 352.16 mg.
As to `CCCCN(CCCC)c1ccc(/C(C)=C/C(=O)O)cc1NC(=O)Nc1ccc(C)cc1F` [Compound 530], in series [1], the IC50 was found to be 8.26 nmol/L.
For `CCCCN(CCCC)c1ccc(/C(C)=C/C(=O)OCC)cc1NC(=O)Nc1ccc(Cl)c(C(F)(F)F)c1` [Compound 1024], in series [1] (setting [8]), the inhibition at 0.1 µM was found to be 29.5%. Also, in series [1] (setting [9]), the inhibition at 10 µM turned out to be 58.2%.
For `CCCCN(CCCC)c1ccc(/C(C)=C/C(=O)O)cc1NC(=O)Nc1ccccc1Cl` [Compound 1027] the same measures were 71.1% and 100%.
For `CCCCN(CCCC)c1ccc(/C(C)=C/C(=O)OCC)cc1NC(=S)Nc1ccccc1` [Compound 1025] the same measures were 24.6% and 68.8%.
With `CCCCN(CCCC)c1ccc(/C(C)=C/C(=O)O)cc1NC(=S)Nc1ccccc1` [Compound 1031], the inhibition at 0.1 µM in series [1] (setting [8]) came out at 29.6%. The inhibition at 10 µM in series [1] (setting [9]) is 72.7%.
Take `CCCCN(CCCC)c1ccc(/C(C)=C/C(=O)OCC)cc1NC(=O)Nc1ccc(Cl)cc1` [Compound 1023]: the inhibition at 0.1 µM in series [1] (setting [8]) came to 35.1%. Also, the inhibition at 10 µM in series [1] (setting [9]) is 100%.
As for `CCCCN(CCCC)c1ccc(/C(C)=C/C(=O)O)cc1NC(=O)Nc1cccc(Cl)c1` [Compound 1028], the inhibition at 0.1 µM in series [1] (setting [8]) is 41.5%. In addition, the inhibition at 10 µM in series [1] (setting [9]) came out at 100%.
Consider `C/C(=C/C(=O)O)c1ccc(N(CC(C)C)CC(C)C)c(NC(=O)Nc2ccc(C)cc2F)c1` [Compound 56], for which, in series [1], the “activity compared with positive control drugs INCB024360 and IN-4” value was “can reach or exceed those of the positive control drugs INCB024360 and IN-4”; the IC50 was 0.13 nmol/L.
In the case of `CCCCN(CCCC)c1ccc(/C(C)=C/C(=O)O)cc1NC(=O)Nc1ccc(Cl)c(C(F)(F)F)c1` [Compound 1030], the inhibition at 0.1 µM in series [1] (setting [8]) is 23.8%. Further, in series [1] (setting [9]), the inhibition at 10 µM is 100%.
Consider `CCCCN(CCCC)c1ccc(/C(C)=C/C(=O)OCC)cc1NC(=O)Nc1ccc(C)cc1` [Compound 518, ethyl (E)-3-(4-(dibutylamino)-3-(3-(p-tolyl)ureido)phenyl)but-2-enoate], for which, in series [1] (HeLa, 48 h), the inhibition at 0.1 µM amounted to 76.8% and the inhibition at 10 µM was 100%.

These data come from patent publication US11370762B2, “Vinylarene derivative and application” (SHENYANG RESEARCH INSTITUTE OF CHEMICAL INDUSTRY CO., LTD., priority 2017, dated 2022).
